Results from PubChem BioAssay (NCI).
Values joined by “and” are separate entries in the source; they are usually repeats but may differ in a detail not shown here. Equal values may be shown once.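 Protocol summary: plate cells (96-well), add compound at 5 concentrations, incubate 48 h, interpolate endpoints linearly. GI50 = concentration required for 50% inhibition of growth. The concentration for full growth arrest is given as TGI.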

Experiments:
Assay in all cases: growth of human tumour cells (NCI), 48 h
SF-268 CNS = system: SF-268 CNS
TK-10 renal = system: TK-10 renal
NCI/ADR-RES ovarian = system: NCI/ADR-RES ovarian
SW-620 colon = system: SW-620 colon
HS 578T breast = system: HS 578T breast
PC-3 prostate = system: PC-3 prostate
OVCAR-8 ovarian = system: OVCAR-8 ovarian
HL-60(TB) leukemia = system: HL-60(TB) leukemia
UACC-257 melanoma = system: UACC-257 melanoma
MOLT-4 leukemia = system: MOLT-4 leukemia

Row | Compound | TGI (SF-268 CNS) [µM] | TGI (TK-10 renal) [µM] | TGI (NCI/ADR-RES ovarian) [µM] | TGI (SW-620 colon) [µM] | TGI (HS 578T breast) [µM] | TGI (PC-3 prostate) [µM] | TGI (OVCAR-8 ovarian) [µM] | TGI (HL-60(TB) leukemia) [µM] | TGI (UACC-257 melanoma) | TGI (MOLT-4 leukemia) | GI50 (TK-10 renal) [µM] | GI50 (NCI/ADR-RES ovarian) [µM] | GI50 (UACC-257 melanoma) [µM] | GI50 (MOLT-4 leukemia) [µM] | GI50 (PC-3 prostate) [µM] | GI50 (SF-268 CNS) [µM] | GI50 (SW-620 colon) [µM] | GI50 (OVCAR-8 ovarian) [µM] | GI50 (HL-60(TB) leukemia) [µM] | GI50 (HS 578T breast) [µM]
1 | Cn1c(=O)ccc2c(=O)c3ccccc3oc21 | > 100 | > 100 | > 100 | > 100 | > 100 | > 100 | > 100 | > 100 | – | – | – | – | – | – | – | – | – | – | – | –
2 | O=S(=O)(O)c1ccc2c(N=Nc3ccccc3)c(O)ccc2c1 | > 100 | > 100 | > 100 | > 100 | > 100 | > 100 | > 100 | > 100 | > 100 µM | > 100 µM | – | – | – | – | – | – | – | – | – | –
3 | COc1cc(/C=C2\N=C(c3ccccc3)N(c3nc4ccc(Sc5ccccc5)cc4[nH]3)C2=O)cc(OC)c1OC | > 100 | 57.4 | 74.6 | > 100 | > 100 | > 100 | > 100 | 37.8 | 45.6 µM | 78.5 µM | – | – | – | – | – | – | – | – | – | –
4 | Cn1c2cn[nH]c(=O)c2c2ccc3ccccc3c21 | 97.2 | > 100 | > 100 | > 100 | 53.1 | > 100 | > 100 | > 100 | > 100 µM | > 100 µM | – | – | – | – | – | – | – | – | – | –
5 | O=C(O)CCCN=C(C1=C(O)C(=O)N(c2ccccc2)C1=O)c1ccccc1 | > 100 | > 100 | > 100 | > 100 | > 100 | > 100 | > 100 | > 100 | > 100 µM | > 100 µM | – | – | – | – | – | – | – | – | – | –
6 | O=c1[nH]c2cc([N+](=O)[O-])c(N/N=C/c3ccc(Cl)cc3Cl)c([N+](=O)[O-])c2[nH]1 | > 100 | > 100 | > 100 | > 100 | > 100 | > 100 | > 100 | > 100 | > 100 µM | > 100 µM | – | – | – | – | – | – | – | – | – | –
7 | N=C(N)c1ccc(N=Nc2c(O)ccc3cc4c(N=Nc5ccc(C(=N)N)cc5)c(O)ccc4cc23)cc1 | > 100 | > 100 | > 100 | > 100 | > 100 | > 100 | > 100 | 84.6 | > 100 µM | > 100 µM | – | – | – | – | – | – | – | – | – | –
8 | C=C1c2nc3ccccc3n2C=C(c2ccc(Cl)cc2)N1c1ccc(OCCN2CCCCC2)cc1 | 45 | > 100 | > 100 | > 45 | – | > 100 | > 45 | 45 | 37.4 µM and > 100 µM | > 45 µM and 9.22 µM | > 100 | 2.14 | > 100 | 0.553 | > 100 | – | – | – | – | –
9 | Cc1ccc(C(=O)Nc2ncn(C3CC(O)C(CO)O3)c(=O)n2)cc1 (configuration not stated) | > 100 | – | > 100 | > 100 | – | – | > 100 | – | > 100 µM | 97.3 µM | – | – | – | – | – | – | – | – | – | –
10 | N#Cc1c(-c2ccc(Cl)cc2)c2c([nH]c1=O)-c1cc([N+](=O)[O-])ccc1CCC2 | 44.2 | 69.5 | 55.4 | > 100 | 99.2 | > 100 | 50.8 | 65.1 | 57 µM | > 100 µM | – | – | – | – | – | – | – | – | – | –
11 | O=C([CH-]C(=O)c1ccccc1)c1ccccc1.O=C([CH-]C(=O)c1ccccc1)c1ccccc1.O=C([CH-]C(=O)c1ccccc1)c1ccccc1.[Cl-].[Hf+4] | > 100 | 53.8 | – | > 100 | – | – | 77.7 | > 100 | 69.5 µM | > 100 µM | 18.7 | – | 22.2 | 11.1 | – | 26.4 | 10.8 | 11.5 | 18.1 | –
12 | C/C(=C\C(=N\NC(=N)N)c1ccccc1)c1ccccc1 | 2.3 | 14.1 | 10.1 | 1.73 | 18.5 | 3.21 | 4.83 | – | – | 2.04 µM | – | – | – | – | – | – | – | – | – | –
13 | O=CN1CCC23CC(O)CCC2C1Cc1cc(Oc2nnnn2-c2ccccc2)cc(O)c13 (configuration not stated) | > 100 | > 100 | > 100 | > 100 | > 100 | > 100 | > 100 | > 100 | > 100 µM | > 100 µM | – | – | – | – | – | – | – | – | – | –
14 | CCN(CCO)CCNc1ccc(C)c2sc3ccccc3c(=O)c12 | 20.9 | 21.4 | 11.7 | 5.5 | 7.49 | 12.7 | 14.2 | 11.3 | 6.16 µM | 18.8 µM | – | – | – | – | – | – | – | – | – | –
15 | C=C1CC2C3C=C(C)C4=CC(=O)CC[C@]4(C)C3CC[C@]2(C)[C@@]1(OC(C)=O)C(C)=O (some centres not stated) | > 100 | > 100 | > 100 | – | > 100 | > 100 | – | 5.53 | – | – | > 100 | 2.43 | – | – | 2.55 | 5.46 | – | – | 2.55 | 43.5
